# Source: US9913827B2, “Bendamustine derivatives and methods of using same” (IGNYTA, INC., priority 2012, dated 2018)
# pIC50: −log10 of the molar value. Read-outs that look alike come from different tables or passages of the source. Marks after values point to notes of the source that are not given here.
# Columns and labels:
# [1] = Rat plasma pharmacokinetics at 3 mg-eq/kg i.v.; conditions: solution formulation 3 mg-eq/kg i.v.
# [2] = system: MDA-MB-231 xenografts; test: Nude mouse MDA-MB-231 tumor efficacy study; assay type: in vivo, athymic nude mice
# Method: Charles River Labs athymic nude mice were subcutaneous injected with 5×10^6 human tumor cells in matrigel. The tumor volume was monitored until an average tumor size of ˜150 mm^3 was obtained in the mouse population The mice were then randomized in to one of the nine treatment groups (summarized in table below) with a population of 10 mice per group (n=10). Each of the formulations was dosed at 100 μL fixed volume via tail vein injection on day 1 and day 2 of the study. Mice were weighed and the tumor volume measured every 3-4 days for 3 weeks of the study duration.
# [3] = Tumor efficacy PK group, H-460 tumor-bearing mice: tumor and plasma levels; conditions: for Ester level in Plasma at 1 hour / Ester level in Tumor at 1 hour: 80 mg/kg i.v.
# Method: The formulations were administrated as 100 μL dose volume through tail vein injection within 30 minutes after compounds were formulated. All the mice were weighed and tumors measured twice weekly. At the last day of the study, plasma, tumor, lung, liver, spleen, left kidney, brain and legs were collected and quickly frozen for further analysis two hours post-dosing.
# (§1) A portion of the tumor bearing mice were dosed as a satellite PK group. Each group was dosed as described for the tumor efficacy group, however the PK group was euthanized and tissue samples collected at 1, 3 and 6 hours post dosing on day 2. The tissues collected included blood, lung, liver and tumor. Samples were analyzed for bendamustine HCl and the corresponding ester analogue as described in the LC-MS protocol section.
# (§2) Plasma and other tissues were prepared for high performance liquid chromatography (HPLC)/mass spectrometric analysis according to a standard protocol following protein precipitation with acetonitrile containing an internal standard. The samples were then analyzed for both bendamustine HCl and bendamustine esters of the invention and alprenolol (internal standard) via HPLC coupled with tandem mass spectrometry. Tissue samples were homogenized in sodium phosphate buffer and the value obtained from the assay was multiplied by 3 to correct for dilution during processing.
# [4] = system: RPMI 8226 (Human Plasmacytoma, Myeloma B Cells); assay type: in vivo, CB.17 SCID female mice; conditions: day 46
# Method: RPMI 8226 (Human Plasmacytoma, Myeloma B Cells) ATCC #CCL-155;
# 80 CB.17 SCID female mice, 4-6 weeks old, 16-20 grams, obtained from Harlan animal breeding center
# Cells (originated from ATCC) were cultured on RPMI medium. Cell suspension was centrifuged and resuspended in 50% Matrigel/HBSS to a final concentration of 7×10^7 cells/ml. The suspension was implanted s.c. in the right flank of the anesthetized mouse at a volume of 100 μl.
# Seven ml saline were added to the original vial containing 3.5 mg powder resulting in 0.5 mg/ml. Three ml of this solution were added to 27 ml saline to receive 0.05 mg/ml concentration.
# bendamustine preparation: 13.5 mg was dissolved in 3.6 ml of 1:1 mixture of 0.9% saline/5% mannitol just before the treatment. 1.05 ml of this solution was added to 0.95 ml diluent for 2 mg/ml solution.
# 1.05 ml of this solution was added to 0.95 ml diluent for 2 mg/ml solution.
# On day 21, mice were sorted by the optimal average tumor volume (˜150 mm^3) and were allocated into eight groups of 9 mice each.
# [formula] The analysis of weight gain and tumor volume progression was made using one-way ANOVA followed by Tukey post-hoc comparisons. Results
# [5] = system: H460 tumor cells (large cell lung cancer); test: Nude mouse H460 tumor efficacy study; assay type: in vivo, nu/nu mouse
# Method: 2×10^6 cells/100 ul in the mix of medium and Matrigel (1:1 ratio) solution was injected into right back flank of each nu/nu mouse. The implanted mice were monitored and measured with electric calipers. The study started when the tumors reached ˜150 mm^3 in size. The mice were measured and randomized into 9 groups with 10 mice in each group per the below table: […]
# [6] = Tumor efficacy PK group, MB-231 tumor-bearing mice: tumor and plasma levels; conditions: for Ester level in Plasma at 1 hour / Ester level in Tumor at 1 hour: 80 mg/kg i.v.
# Method: as §1, §2
# [7] = system: MB-231 (HBC); test: MTS cell assay (cell proliferation), MB-231; assay type: cell-based; conditions: Homo sapiens, 72 hours
# Method: Charles River Labs athymic nude mice bearing MDA-MB-231 breast carcinoma cell line subcutaneous xenografts (5×10^6 cells in matrigel) were sacrificed to make a tumor isolate. Using sterile instruments and working aseptically, the tumors were removed from the euthanized animal. The tumor was placed in a 50 mL sterile conical tube and 5 mL of trypsin was added. The tumor was cut into small pieces and incubated at 37° C. for 30 minutes. After incubation, a cell strainer was placed on a second, sterile, 50 mL conical tube and the contents of the first tube were placed in the cell strainer. The tissue was forced through the filter using the flat end of a syringe plunger. The cell strainer was washed with 5 mLs of media containing FBS. The cells were spun down and the supernatant was discarded. The cells were resuspended in 20 mLs of complete media containing P/S and placed in a 75 cm flask.
# (§3) Human carcinoma cells (2,000 cells/well) were incubated with the desired concentration of the test molecule (0-200 μM) for 72 hours. The cells were then incubated with MTS solution (Promega) for 1-2 hours, and the compounds effects on cell proliferation was determined by measuring the absorbance at 490 nm. Cell growth was expressed as a percent of the appropriate control (placebo). […] All data reported was the mean±SE of three independent experiments.
# [8] = system: H-460 (NSCLC); test: MTS cell assay (cell proliferation), H-460; assay type: cell-based; conditions: Homo sapiens, NCI-H460, 72 hours
# Method: as §3
# [9] = Solution, 37.5 mg/kg i.v. day 1 and 2
# [10] = HSA nanoparticle, 80 mg/kg i.v. day 1 and 2
# [11] = Solution, 80 mg/kg i.v. day 1 and 2
# [12] = HSA nanoparticle, 80 mg/kg i.v.
smiles,measurement,setting,value
"CCCCCC(CCCC)OC(=O)CCCc1nc2cc(N(CCCl)CCCl)ccc2n1C (stereo not shown) [5-decanyl ester, 4-{5-[Bis-(chloroethyl)-amino]-1-methyl-1H-benzimidazol-2-yl}butyric acid 5-decyl ester]",Plasma levels of the dosed Ester,[1],All < MQL
"Cn1c(CCCC(=O)O)nc2cc(N(CCCl)CCCl)ccc21 [Bendamustine, 4-[5-[bis(2-chloroethyl)amino]-1-methylbenzimidazol-2-yl]butanoic acid]",% Morbidity,[2]; [9],10%
same,% Mortality,[2]; [9],0%
same,% Tumor Inh.,[2]; [9],77%
same,BM1 level in Plasma at 1 hour,"[3]; Solution, 37.5 mg/kg i.v.",1550 ng/mL
same,BM1 level in Tumor at 1 hour,"[3]; Solution, 37.5 mg/kg i.v.",1472 ng/mL
same,% TGI,[4]; 20 mg/kg iv on days 1 and 2,66*** %
same,No. of CR,[4]; 20 mg/kg iv on days 1 and 2,0
same,No. of PR,[4]; 20 mg/kg iv on days 1 and 2,0
same,"Δ mean tumor volume, (mean ± se)",[4]; 20 mg/kg iv on days 1 and 2,205 ± 44
same,No. of CR,[4]; 37.5 mg/kg iv on days 1 and 2,0
same,No. of PR,[4]; 37.5 mg/kg iv on days 1 and 2,0
same,"Δ mean tumor volume, (mean ± se)",[4]; 37.5 mg/kg iv on days 1 and 2,113 ± 23
same,% TGI,"[4]; 37.5 mg/kg iv on days 1 and 2, 37.5 mg/kg",81%
same,% Morbidity,"[5]; Solution, 37.5 mg/kg i.v.",0/0%
same,% Mortality,"[5]; Solution, 37.5 mg/kg i.v.",0/0%
same,BM1 level in Plasma at 1 hour,"[6]; Solution, 37.5 mg/kg i.v.",906 ng/mL
same,BM1 level in Tumor at 1 hour,"[6]; Solution, 37.5 mg/kg i.v.",558 ng/mL
"Cn1c(CCCC(=O)OC2CCCCC2)nc2cc(N(CCCl)CCCl)ccc21 [Cy-hexyl bendamustine ester, 4-{5-[Bis-(chloroethyl)-amino]-1-methyl-1H-benzimidazol-2-yl}butyric acid cyclohexyl ester]",Plasma levels of the dosed Ester,[1],All < MQL
"CCCCCCCCOC(=O)CCCc1nc2cc(N(CCCl)CCCl)ccc2n1C [bendamustine C8 ester, 4-{5-[Bis-(chloroethyl)-amino]-1-methyl-1H-benzimidazol-2-yl}butyric aid octyl ester]",pIC50,[7],4.27
same,pIC50,[8],4.31
"CCCCCCCCCCCCCCOC(=O)CCCc1nc2cc(N(CCCl)CCCl)ccc2n1C [bendamustine C14 ester, 4-{5-[Bis-(chloroethyl)-amino]-1-methyl-1H-benzimidazol-2-yl}butyric acid tetradecyl ester]",% Morbidity,[2]; [10],60%
same,% Mortality,[2]; [10],0%
same,% Morbidity,[2]; [11],40%
same,% Mortality,[2]; [11],0%
same,% Tumor Inh.,[2]; [11],90%
same,Ester level in Plasma at 1 hour,[3]; HSA nanoparticle,3648 ng/mL
same,Ester level in Tumor at 1 hour,[3]; HSA nanoparticle,4570 ng/mL
same,Ester level in Plasma at 1 hour,[3]; Solution,32233 ng/mL
same,Ester level in Tumor at 1 hour,[3]; Solution,8570 ng/mL
same,% Morbidity,[5]; [12],10%
same,% Mortality,[5]; [12],0%
same,% Tumor Inh.,[5]; [12],40%
same,% Morbidity,"[5]; Solution, 80 mg/kg i.v.",100%
same,% Mortality,"[5]; Solution, 80 mg/kg i.v.",40%
same,% Tumor Inh.,"[5]; Solution, 80 mg/kg i.v.",81%
same,Ester level in Plasma at 1 hour,[6]; HSA nanoparticle,5727 ng/mL
same,Ester level in Tumor at 1 hour,[6]; HSA nanoparticle,10430 ng/mL
same,Ester level in Plasma at 1 hour,[6]; Solution,14 ng/mL
same,Ester level in Tumor at 1 hour,[6]; Solution,396 ng/mL
